The source of these data is PubChem BioAssay (NCI).

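Following 48 hours of exposure in 96-well plates, responses at five concentrations were used to interpolate endpoints linearly. GI50 = concentration required for 50% inhibition of growth. TGI: total growth inhibition.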

Some test systems named below: 786-0 renal; A498 renal; DU-145 prostate; HOP-62 NSCLC; HT29 colon; MCF7 breast; T-47D breast; HL-60(TB) leukemia; RPMI-8226 leukemia.
What all share (test): inhibition of tumour cell growth, NCI panel, 48 h

On to `O=C(Cc1ccccc1)N=Nc1c(O)[nH]c2ccccc12`, for which the TGI was above 100 µM with 786-0 renal; 80.4 µM in the assay on A498 renal; above 100 µM in the assay with DU-145 prostate; above 100 µM with HOP-62 NSCLC; above 100 µM in the assay on HT29 colon; above 100 µM with MCF7 breast. The same compound had a TGI in the assay on T-47D breast above 100 µM.
On to `CC(C)(C)c1cc(/C=C/C(=O)CC(=O)/C=C/c2cc(C(C)(C)C)c(O)c(C(C)(C)C)c2)cc(C(C)(C)C)c1O`, for which the TGI with 786-0 renal, in the assay on DU-145 prostate, in the assay with HL-60(TB) leukemia, in the assay on HOP-62 NSCLC, with HT29 colon and in the assay on MCF7 breast was above 50 µM in each case. The compound also displayed a TGI in the assay with RPMI-8226 leukemia above 50 µM.
`CCOC(=O)C1=CC(C)(C(=O)OCC)Nc2c(nc(SC)n(C)c2=O)N1` (stereo not drawn): the TGI in the assay on 786-0 renal, in the assay with A498 renal, with DU-145 prostate, with HOP-62 NSCLC, with HT29 colon and in the assay on MCF7 breast was above 10 µM in each case. The TGI with RPMI-8226 leukemia and with T-47D breast was above 10 µM in each case.
As to `CC1=Nc2c(C#N)ncn2N=C(C)C1`, the TGI with 786-0 renal, in the assay with A498 renal, in the assay with DU-145 prostate, in the assay with HL-60(TB) leukemia, in the assay on HOP-62 NSCLC and in the assay with HT29 colon was above 100 µM in each case. Further, the TGI with MCF7 breast and in the assay on RPMI-8226 leukemia was above 100 µM in each case.
On to `C=CC[C@@H]1C=C[C@@H](C(=O)OC)n2c(=O)n(-c3ccccc3)c(=O)n21`, for which the TGI with 786-0 renal, in the assay on A498 renal, in the assay on DU-145 prostate, in the assay on HOP-62 NSCLC, with HT29 colon and in the assay on MCF7 breast was above 100 µM in each case. The TGI in the assay with RPMI-8226 leukemia and in the assay on T-47D breast was above 100 µM each time.
`CCOC(=O)c1nc2cc(C(F)(F)F)ccc2nc1Nc1ccc(F)cc1`: the TGI with 786-0 renal, with A498 renal, in the assay with DU-145 prostate, in the assay on HOP-62 NSCLC, in the assay on HT29 colon and in the assay on MCF7 breast was above 100 µM in each case. In addition, the TGI is 61.6 µM with RPMI-8226 leukemia and above 100 µM in the assay on T-47D breast.
As for `O=c1oc2c/c(=C\c3ccccc3)c(=O)c3cccc1c3-2`, the TGI in the assay with 786-0 renal was 53.9 µM; in the assay on A498 renal it was above 100 µM; in the assay on DU-145 prostate, above 100 µM; in the assay on HL-60(TB) leukemia, 71.1 µM; in the assay on HOP-62 NSCLC it was 44.1 µM; with HT29 colon it was above 100 µM. Also, the TGI in the assay with RPMI-8226 leukemia was found to be 88.1 µM; in the assay with T-47D breast, 55.5 µM.
In the case of `COc1ccc(/C=N\NC(=O)Nc2cccc3ccccc23)cc1`, the TGI is 46.6 µM in the assay on 786-0 renal; 51.6 µM in the assay on A498 renal; above 100 µM with DU-145 prostate; 26.5 µM with HOP-62 NSCLC; above 100 µM in the assay with HT29 colon; above 100 µM in the assay on MCF7 breast. Moreover, the TGI is above 100 µM with RPMI-8226 leukemia and 38.2 µM with T-47D breast.
Turning to `Cn1cc(-c2nc(-c3c[nH]c4ccncc34)cs2)c2cc(F)ccc21`, the GI50 with A498 renal is 1800 nM; in the assay with DU-145 prostate, 1710 nM; in the assay on HOP-62 NSCLC it was 1730 nM; with HT29 colon, 1440 nM; in the assay with MCF7 breast, 1230 nM. Moreover, the TGI in the assay with A498 renal was determined as 3.43 µM; in the assay on DU-145 prostate, 3.14 µM; with HOP-62 NSCLC it was 3.3 µM; in the assay on HT29 colon, 2.93 µM; in the assay on MCF7 breast, 2.88 µM.
With `COc1cccc2c1-c1c(OC)cccc1SS2`, the TGI with 786-0 renal is 36.2 µM; with A498 renal, 27.4 µM; with DU-145 prostate, above 100 µM; in the assay on HL-60(TB) leukemia, 7.35 µM; in the assay with HOP-62 NSCLC, above 100 µM; in the assay on HT29 colon it was 36.2 µM. Moreover, the values for the TGI in the assay with MCF7 breast and in the assay on RPMI-8226 leukemia were above 100 µM and 59.2 µM, respectively.
In the case of `CN(C)CCCNc1cnc2cc3ccccc3cc2n1`, the TGI in the assay on 786-0 renal is above 100 µM; with A498 renal it was above 100 µM; with DU-145 prostate, above 100 µM; in the assay on HL-60(TB) leukemia, 68.3 µM; with HOP-62 NSCLC, above 100 µM; in the assay on HT29 colon it was 30.5 µM. Further, the TGI in the assay on MCF7 breast worked out at 44.8 µM; with RPMI-8226 leukemia, 82.2 µM.
For `Cc1oncc1NC1=CC(=O)C(=O)c2ccccc21`, the TGI was found to be 32.2 µM in the assay with 786-0 renal; 17.9 µM in the assay on A498 renal; 31.7 µM with DU-145 prostate; 7.06 µM with HL-60(TB) leukemia; 36.8 µM in the assay on HOP-62 NSCLC; 11.6 µM with HT29 colon. Further, the TGI in the assay on MCF7 breast came out at 9.63 µM; in the assay on T-47D breast, 11.5 µM.
Turning to `COc1cc(O)c2c(=O)c(OC)c(-c3ccc4c(c3)OCO4)oc2c1OC`, the TGI in the assay with 786-0 renal, in the assay on A498 renal, in the assay on DU-145 prostate, in the assay with HL-60(TB) leukemia, with HOP-62 NSCLC and in the assay with HT29 colon was above 50 µM in each case. Also, the TGI in the assay with MCF7 breast and with T-47D breast was above 50 µM throughout.
In the case of `CO[C@H]1C[C@H](n2cc(C)c(=O)[nH]c2=O)O[C@@H]1CO`, the TGI in the assay with 786-0 renal, with A498 renal, with DU-145 prostate, in the assay with HL-60(TB) leukemia, in the assay on HOP-62 NSCLC and with HT29 colon was above 100 µM each time. For the same compound, the TGI in the assay with MCF7 breast and in the assay on RPMI-8226 leukemia was above 100 µM in each case.
As to `Cc1cc2c(c(C(=O)NCCC(=O)N[C@@H](C)C(=O)OCc3ccccc3)c1)Oc1c(cc(C)cc1C(=O)NCCC(=O)N[C@@H](C)C(=O)OCc1ccccc1)S2`, the TGI in the assay on 786-0 renal, with A498 renal, in the assay on DU-145 prostate, with HOP-62 NSCLC, in the assay on HT29 colon and in the assay with MCF7 breast was above 100 µM each time. Also, the TGI in the assay on RPMI-8226 leukemia and in the assay with T-47D breast was above 100 µM each time.
Regarding `NC(=O)c1ncn2c(=O)n(CCl)nnc12`, the TGI in the assay with 786-0 renal, in the assay with A498 renal, in the assay with DU-145 prostate, with HOP-62 NSCLC, with HT29 colon and in the assay on MCF7 breast was above 100 µM each time. Moreover, the TGI with RPMI-8226 leukemia and in the assay on T-47D breast was above 100 µM in each case.
